Results published in patent US5093477A, “Rapidly cleavable substrate for HIV protease” (priority 1988, dated 1992).
Where a SMILES comes first, the peptide text is derived from it. [ ]: non-standard residue; d: D form. The star is where a group is joined. Sta = CC(C)C[C@H](N)[C@@H](O)CC(=O)O; Isovaleryl = CC(C)CC(=O)*

Experiments:
Type in all cases: biochemical
HIV protease [1] = target: T1, HIV protease (Human immunodeficiency virus type 1 group M subtype B, UniProt P04585); assay: HIV protease inhibitor test with Ser-Phe-Asn-Phe-Opr-Gln-Ile as substrate; details: substrate Ser-Phe-Asn-Phe-Opr-Gln-Ile 2 mg/ml, HIV protease No. I (1:10), blank 33.62 %
T1 construct: The enzyme is composed of only 99 amino acids and evidently eliminates itself from the pol gene
Protocol: A) General procedure for testing inhibitors of HIV protease with Ser-Phe-Asn-Phe-Opr-Gln-Ile
2 mg of Ser-Phe-Asn-Phe-Opr-Gln-Ile are dissolved in 1 ml of MGTE15 buffer (possibly using ultrasound) and subsequently filtered through a sterile filter (0.45 μm).
2.5 times the desired molarity of the inhibitor per ml of solution are weighed in and dissolved in DMSO (10% of the final volume). The solution is diluted to the final volume with MGTE15 buffer and filtered through a sterile filter (0.45 μm).
5 μl of the HIV protease solution are diluted with MGTE25 buffer as required.
10 μl portions of the substrate solution are pipetted into test tubes (16×100) with screw caps. 10 μl of MGTE15 buffer which contains 10% DMSO are pipetted into the blank. 10 μl portions of the inhibitor solutions are added to the remaining test tubes. These samples are incubated at 37° C. for 5-10 minutes and then 5 μl of the protease solution are added to each. After reaction at 37° C. for 2 hours, 10 or 20 μl of each sample (depending on the sensitivity of the HPLC apparatus) are removed by pipette, placed in microvials and diluted with 120 μl of the HPLC solvent.
(§1) Solvent system: 80% 0.1 M phosphoric acid pH 2.5. 20% (w/w) acetonitrile
(§2) Column: Merck ®LICHROSORB RP18 (5 μm) 250×4
(§3) Column temperature: 42° C.
(§4) Detector parameters: 215 nm, 0.08 AUF, 18.2° C.
(§5) Analysis time: 11 minutes
The % content of the tetrapeptide peak relative to the tetrapeptide+heptapeptide total corresponds to the proportion cleaved.

HIV protease [2] = target: T1, HIV protease; assay: HIV protease kinetics: comparison of the cleavage rate of several substrates (Tab. 6); details: substrate 2 mg/ml, HIV protease No. II (1:4)
Protocol: C) Procedure for the HIV protease kinetics (Tab. 6) 10 μl of substrate solution (2 mg/ml) in MGTEl5 buffer and 10 μl of MGTE15 buffer are combined and incubated at 37° C. for 5-10 minutes. 5 μl of HIV protease No. II (diluted 1:4 with MGTE25 buffer) are added to this, and the mixture is shaken at 37° C. Subsequent procedure as in B).
Column: Merck HIBAR ®LICHROSORB RP8 (7 μm) 250×4
Flow rate: 1 ml min for SFNFPQI and SFNFOQI 0.5 ml/min for […] and VSQNYOIVQ. Otherwise as in Ae).

HIV protease [3] = target: T1, HIV protease; assay: HIV protease kinetics: cleavage of peptide substrates followed by HPLC (Tab. 1-4); details: substrate 4 mg/ml, HIV protease No. II (5 μl)
Protocol: e) Conditions for HPLC analysis:
as §1, §2, §3, §4, §5
Retention time of the substrate: 8.1 minutes
Retention time of the N-terminal tetrapeptide: 3.9 minutes
Under the conditions chosen here, the heptapeptides are separated from the N-terminal tetrapeptide produced in the enzymatic cleavage. The % content of the tetrapeptide peak relative to the tetrapeptide+heptapeptide total corresponds to the proportion cleaved.
B) Procedure for HIV protease kinetics (Tab. 1-4)
10 μl of substrate solution (2-4 mg/ml) in MGTE15 buffer and 10 μl of MGTE15 buffer which contains 10% dimethyl sulfoxide are combined and incubated at 37° C. for 5-10 minutes. 5 μl of the HIV protease solution in MGTE25 buffer are added to this, and the mixture is shaken at 37° C. […] The microliter syringe is used to load the total amount onto the HPLC column. HPLC conditions as in A).

Row | Compound | % tetrapeptide = % cleavage (HIV protease [2]; 5 min) | % tetrapeptide = % cleavage (HIV protease [2]; 10 min) | % tetrapeptide = % cleavage (HIV protease [2]; 20 min) | % tetrapeptide = % cleavage (HIV protease [2]; 40 min) | % tetrapeptide = % cleavage (HIV protease [2]; 80 min) | % tetrapeptide = % cleavage (HIV protease [2]; 160 min) | % tetrapeptide = % cleavage (HIV protease [2]; 320 min) | other results
1 | CC(C)CC(=O)N[C@H](C(=O)N[C@H](C(=O)N[C@@H](CC(C)C)[C@@H](O)CC(=O)N[C@@H](C)C(=O)N[C@@H](CC(C)C)[C@@H](O)CC(=O)O)C(C)C)C(C)C [Pepstatin A] (Isovaleryl-VV[Sta]A[Sta]-OH) |  |  |  |  |  |  |  | Cleavage (%) (HIV protease [1]; inhibitor 10^-4 M): 1.25%; Cleavage (%) (HIV protease [1]; inhibitor 10^-5 M): 4.73%; Cleavage (%) (HIV protease [1]; inhibitor 10^-6 M): 18.22%; Cleavage (%) (HIV protease [1]; inhibitor 10^-7 M): 25.09%
2 | H-SFNFPQI-OH [SFNFPQI, H-Ser-Phe-Asn-Phe-Pro-Gln-Ile-OH] | 0.25% | 4.68% | 7.01% | 11.34% | 19.50% | 34.19% | 48.18% | % cleavage after 5 minutes' cleavage time (text summary of Tab. 1 and 2) (HIV protease [3]; 5 minutes, both experiments): about 4%; % cleavage (HIV protease [3]; Experiment A, 5 min): 4.00%; % cleavage (HIV protease [3]; Experiment A, 10 min): 8.19%; % cleavage (HIV protease [3]; Experiment A, 20 min): 14.57%; % cleavage (HIV protease [3]; Experiment A, 40 min): 23.40%; % cleavage (HIV protease [3]; Experiment A, 80 min): 39.43%; % cleavage (HIV protease [3]; Experiment A, 160 min): 58.39%; % cleavage (HIV protease [3]; Experiment A, 320 min): 70.16%; % cleavage (HIV protease [3]; Experiment B, 5 min): 4.15%; % cleavage (HIV protease [3]; Experiment B, 10 min): 7.54%; % cleavage (HIV protease [3]; Experiment B, 20 min): 14.35%; % cleavage (HIV protease [3]; Experiment B, 40 min): 23.00%; % cleavage (HIV protease [3]; Experiment B, 80 min): 37.68%; % cleavage (HIV protease [3]; Experiment B, 160 min): 57.11%; % cleavage (HIV protease [3]; Experiment B, 320 min): 72.51%
3 | H-VSQNYPIVQ-OH | 3.66% | 6.53% | 11.31% | 20.32% | 31.49% | 55.00% | 62.48% | 
4 | H-Val-Ser-Gln-Asn-Tyr-Opr-Ile-Val-Gln-OH [VSQNYOIVQ] | 10.27% | 20.72% | 40.47% | 60.50% | 88.98% | 100.00% | 100.00% | 
